Experimental data as given in US20080113347A1, “Method for the in Vitro Diagnosis and Prognosis of Demyelinating Diseases, and for the Development of Drugs Against Demyelinating Diseases” (priority 2003, published 2008).
d = 2'-deoxy (DNA); m = 2'-O-methyl

Experiments:
[1] = test system: dusp6 gene expression; experiment: Differential analysis of dusp6 gene expression in oligodendrocyte cultures with Rat Genome U34 DNA arrays; type: cell-based; design: key to Change: Increases (I); Decreases (D); undergoes No Change (NC); Marginally Increases (MI); Marginally Decreases (MD); key to Detection: Present (P); Absent (A); Marginal (M); conditions: for Ratio (=2^SLR): fold change vs untreated control; for Signal (dusp6, probe set U42627_at): arrays scaled to total intensity 100; for Change: vs control
Source text: Microarrays. The microarrays GeneChip Test 3 (Affymetrix, Santa Clara) were used which allow testing the quality of the RNA prior to the expression analysis with GeneChip Rat Genome U34 set (Affymetrix, Santa Clara), representing 3322 complete gene sequences. The dusp6 gene is represented in the microarray by probe set U42627_at of Affymetrix, which are sense oligonucleotides of 25 nucleotides in length designed on the basis of GeneBank U42627 sequence (Table 1).
Samples. The samples studied corresponded to primary oligodendrocyte cultures obtained from the optic nerve of 12-day old rats. To prevent inter-individual variations, each culture corresponded to a 10-animal cell pool. Treatments were made in duplicate with 10 μM AMPA (α-amino-3-hydroxy-5-methyl-4-isoxazolepropionic acid) or 3 μM kainate. The duration of treatments was 2, 10 and 15 minutes, the cells being collected immediately after treatment in the first two cases and 1 hour after the 15-minute treatment. Treatment for 10 and 15 minutes with AMPA and with kainate causes apoptosis, whereas 2-minute treatment was considered sublethal due to scarce treatment duration. After treatments, the cells were collected in TRIzol® Reagent (Life Technologies) and were stored at −80° C. until total RNA extraction.
The analysis was carried out with total RNA from oligodendrocyte cultures. Each sample corresponded to the mixture of total RNAs from two cultures and were called the following: control: untreated cultured oligodendrocytes ampa 2: oligodendrocytes treated for 2 minutes with 10 μM AMPA and collected after treatment ampa 10: oligodendrocytes treated for 10 minutes with 10 μM AMPA collected after treatment ampa 15: oligodendrocytes treated for 15 minutes with 10 μM AMPA and collected 60 minutes later Kainate 2: oligodendrocytes treated for 2 minutes with 3 μM kainate and collected after treatment Kainate 10: oligodendrocytes treated for 10 minutes with 3 μM kainate and collected after treatment Kainate 15: oligodendrocytes treated for 15 minutes with 3 μM kainate and collected 60 minutes later The total RNA of each one of the cultures was obtained by homogenizing the cells in TRIzol® Reagent (Life Technologies) following the supplier's recommendations. The resulting total RNA was cleaned with the RNeasy Mini kit (QIAGEN) (Chomczynski P. et al., Anal. Biochem., 1987, 162: 156; Chomczynski P., Biotechniques, 1993, 15: 532). 2 μg from each total RNA preparation were used as starting material for the synthesis of biotinylated cRNA with the MessageAmp™ aRNA kit (Ambion).
15 μg of each biotinylated cRNA were fragmented at 94° C. for 35 minutes in a buffer solution containing 40 mM Tris-Acetate (pH 8.1), 100 mM KOAc and 30 mM MgOAc. The fragmented cRNA was mixed with hybridization buffer (10 mM MES, 1M NaCl, 20 mM EDTA, 0.01% Tween 20) and was heated at 99° C. for 5 minutes and subsequently at 45° C. for 5 minutes, to then be loaded into the Affymetrix array. The first array in which hybridization was carried out was Affymetrix Test 3. This array allows testing the quality of the RNA prior to expression analysis in the Affymetrix® GeneChip® Rat Genome U34 set (RG-U34).
For hybridization, the arrays were incubated in a rotary oven at 45° C. for 16 hours and with a constant rotation of 60 rpm.
Washing and staining of each array was carried out in the Affymetrix® Fluidics Station. A washing and staining program was used which included:
The arrays were scanned at 560 nm using a confocal microscope using laser emission (Agilent GeneArray Scanner). Analysis of the intensity readings was carried out with Microarray Suite 5.0 software. To compare the arrays, the latter were scaled to a total intensity of 100.
Differential analysis of the dusp6 gene expression in the oligodendrocytes stimulated with regard to the control was carried out from the array comparison data obtained using the Affymetrix software. […]

[2] = test system: oligodendrocytes treated with AMPA; experiment: Cell death inhibition in oligodendrocytes treated with AMPA after incubation with antisense oligonucleotides; type: cell-based, rat; conditions: ODN transfected with Lipofectin, stimulus 15 minutes, protecting effect assessed after 6 hours
Description: To evaluate if dusp6 expression blocking inhibits cell death of oligodendrocytes treated with AMPA, antisense oligonucleotides (ODNs) capable of blocking said gene expression were used. The working model used in this assay is a model based on the cell death of oligodendrocytes, a typical model for study the neurodegenerative phase of said demyelinating diseases.
Oligonucleotide design was carried out based on the secondary structure of the RNA, trying to prevent sequences presenting a high internal hybridization percentage, and with the aid of AO predict (http://www.cgb.ki.se/AOpredict/) computer software. To improve efficacy and capability to degrade RNA and to reduce side effects, last-generation oligonucleotides were designed, presenting two types of modifications; 2′-O-Methyl groups in the 6 first and last bases, and phosphorothiodated groups in the 8 intermediate bases. Furthermore, the oligonucleotides were labeled with Texas Red to be able to identify the cells transfected with said oligonucleotides.
Three antisense ODNs, for the purpose of identifying active sequences, plus a sense ODN, used as a negative control, were designed. To improve penetration thereof, the ODNs were transfected using the Lipofectin kit (Invitrogen).
24 hours after seeding, the oligodendrocytes were treated with a mixture of ODs at different concentrations coupled to the transfection kit liposomes.
After 24 hours, the cells were rinsed and were left another 24 hours before the experiment to ensure total blocking of the protein under study. Subsequently, the excitotoxic stimulus, AMPA 10 μM+CTZ 100 μM, was added during 15 minutes, and the protecting effect of the different ODNs after 6 hours was assessed.

[3] = test system: oligodendrocytes; conditions: UO126 10 μM
Description: DUSP6 is a negative regulator of the MAPK/ERK signaling pathway which promotes cell survival, as documented above in the Background of the Invention section. Because of that, we tested if the pharmacological inhibition of this pathway potentiates oligodendrocyte death triggered by activation of AMPA receptors.
To block the MAPK/ERK pathway, oligodendrocytes were incubated with UO126, a dual MEK1 & 2 inhibitor, for 15 min prior to the excitotoxic stimulus. Subsequently, cells were exposed to AMPA 10 μM+CTZ 100 μM during 15 minutes in the presence or absence of UO126, and cell viability was assessed 24 h later by the MTT method.

[4] = treated 2 minutes (10 μM AMPA or 3 μM kainate), collected after treatment
[5] = treated 10 minutes (10 μM AMPA or 3 μM kainate), collected after treatment
[6] = treated 15 minutes (10 μM AMPA or 3 μM kainate), collected 60 minutes later
[7] = treatments with kainate (3 μM; 2, 10 and 15 minutes) taken together

In the case of `C=C(C)[C@H]1CN[C@H](C(=O)O)[C@H]1CC(=O)O` [Kainate, kainate], the “SLR (vs control)” value ([1]; Signal Log Ratio (log2), treated 2 minutes (10 μM AMPA or 3 μM kainate), collected after treatment) is reported as 0.6, the “SLR (vs control)” value ([1]; Signal Log Ratio (log2), treated 10 minutes (10 μM AMPA or 3 μM kainate), collected after treatment) is reported as 0.6 and the “SLR (vs control)” value ([1]; Signal Log Ratio (log2), treated 15 minutes (10 μM AMPA or 3 μM kainate), collected 60 minutes later) is reported as 0.9. The “Ratio (=2^SLR)” value [1, 4] was 1.5 fold, the “Ratio (=2^SLR)” value [1, 5] was 1.5 fold and the “Ratio (=2^SLR)” value [1, 6] was 1.9 fold. The Detection [1, 4] was “P”, the “Signal (dusp6, probe set U42627_at)” value [1, 4] was 48.4 and the Detection [1, 5] was “P”. For the same molecule, the “Signal (dusp6, probe set U42627_at)” value [1, 5] was 43.5, the Detection [1, 6] was “P” and the “Signal (dusp6, probe set U42627_at)” value [1, 6] was 63.7. The “SLR (vs control)” value [1, 7] was less than 1, the “dusp6 expression increase with regard to the control” value [1, 7] was “less than two fold” and the Change [1, 4] was “I”. The Change [1, 5] was “I” and the Change [1, 6] was “I”.
For “ODN2: antisense ODN against dusp6; 2′-O-Methyl groups in 6 first and last bases, phosphorothiodated 8 intermediate bases, Texas Red labeled (antisense TCAACGTGGCCATCCCGGGC; sugars from the 5' end m6 d8 m6, backbone, methylation of C and T or U not given here; Texas Red label, phosphorothioates in eight intermediate bases)”, the “oligodendroglial death after stimulation with AMPA 10 μM+CTZ 100 μM” value (shortened to “oligodendroglial death after stimulation”) [2] was “significantly inhibited” and the “oligodendroglial death after stimulation” value ([2]; listed as SEQ ID NO:3) was “inhibit cell death of oligodendrocytes treated with AMPA”.
`N#CC(=C(/N)Sc1ccccc1N)/C(C#N)=C(/N)Sc1ccccc1N` [UO126] was tested, and the “oligodendroglial cell death induced by AMPA 10 μM+CTZ 100 μM in the presence of UO126” value ([3]; 15 min prior to and during 15 minutes stimulus, MTT 24 h later, p<0.05, n=3 in triplicate) was “increased three-fold” and the “oligodendroglial viability under control conditions” value ([3]; MTT, 24 h later) was “did not affect oligodendroglial viability”.
For “ODN3: antisense ODN against dusp6; 2′-O-Methyl groups in 6 first and last bases, phosphorothiodated 8 intermediate bases, Texas Red labeled (antisense CCAAGTGGACTCCCTGCAATC; sugars from the 5' end m6 d9 m6, backbone, methylation of C and T or U not given here; Texas Red label, phosphorothioates in eight intermediate bases)”, the “oligodendroglial death after stimulation” value [2] was “significantly inhibited” and the “oligodendroglial death after stimulation” value ([2]; listed as SEQ ID NO:4) was “inhibit cell death of oligodendrocytes treated with AMPA”.
